Results as given in article PMC11637191, “The pH-dependence of efflux ratios determined with bidirectional transport assays across cellular monolayers” (International Journal of Pharmaceutics: X, 2024).
Read-outs that look alike come from different tables or passages of the source.

Tests used:
[1] = no reference given; cited from earlier work
[2] = system: MDCK-II-MDR1 cells; settings: intrinsic membrane permeability, calculated from Papp, A⟶B with elacridar
Procedure: Briefly, cells (passage 20–40) were seeded onto 12-well PET inserts (CellQART, Northeim, Germany; pore size: 0.4 μm; filter thickness: 11.5 μm, 100×10^6 pores/cm^2) at a density of 1.5×10^5 cells/insert. […] One day before the experiments, the cell medium was refreshed. For P0 determination, inserts were pre-incubated with the P-gp inhibitor elacridar (2 μM) for 30 min in HBSS pH 7.4. The transport rates in both directions of the test compounds were determined in duplicate or triplicate for 4–5 different pH values between pH 5 and pH 9. The transport buffer was HBSS buffered with 10 mM MES for pH 5 and 6, 25 mM HEPES for pH 7, 7.4 and 8, and 10 mM TAPS for pH 9. Stock solutions were prepared in the transport buffer and pre-warmed to 37 °C. Additional stock solutions with 2 μM elacridar were prepared at suitable pH values to measure P0 values in tandem. The pH of all buffer and stock solutions, as well as the pH of all samples after experiment completion, was controlled with a rapid pH automated pH meter (Hudson Robotics, Inc., Springfield, NJ, USA). Inserts were used in 12-well plates (TPP Techno Plastic Products AG, Trasadingen, Switzerland). […] Timestep length was determined individually for each compound and direction measured to ensure sink conditions. […]
to ensure that measured transport rates would not be affected by active efflux .

[3] = system: MDCK-MDR1 cells; settings: dog, MDCK-MDR1, pH 7.4
[4] = Calculation of neutral fraction (fn)
[5] = system: P-gp (MDR1); assay: in vitro; settings: dog, MDCK-MDR1, Papp, B⟶A
[6] = system: P-gp (MDR1); assay: in vitro; settings: dog
[7] = in vitro; settings: dog
[8] = system: MDCK-MDR1 cells; settings: cited from earlier work
[9] = system: MDCK-II-MDR1 cells
[10] = determined 25 °C; etoposide acidic, acebutolol basic; ref Avdeef, 2012; cited from earlier work

COc1ccc2c(c1)c(CC(=O)O)c(C)n2C(=O)c1ccc(Cl)cc1 [Indomethacin]
logKhex/water [1]: 0.58

COc1cc2c(c(OC)c1OC)-c1ccc(OC)c(=O)cc1[C@@H](NC(C)=O)CC2 [Colchicine]
LogP0 [2]: -5.9 P in cm/s | Factor difference [3]: 7 | fn ([4]; neutral fraction at pH 8): 100% | Papp [5]: 6.33 ×10⁻⁶ cm/s | Papp ([6]; MDCK-MDR1, pH 5): 0.52 ± 0.15 ×10⁻⁶ cm/s | Papp B→A ([6]; MDCK-MDR1, pH 5): 2.12 ± 0.14 ×10⁻⁶ cm/s | Papp ([6]; MDCK-MDR1, pH 6): 0.2 ± 0.04 ×10⁻⁶ cm/s | Papp B→A ([6]; MDCK-MDR1, pH 6): 4.42 ± 0.33 ×10⁻⁶ cm/s | Papp ([6]; MDCK-MDR1, pH 7): 0.16 ± 0.04 ×10⁻⁶ cm/s | Papp B→A ([6]; MDCK-MDR1, pH 7): 5.03 ± 0.58 ×10⁻⁶ cm/s | Papp ([6]; MDCK-MDR1, pH 8): 0.2 ± 0.05 ×10⁻⁶ cm/s | Papp B→A ([6]; MDCK-MDR1, pH 8): 6.33 ± 0.62 ×10⁻⁶ cm/s | Papp ([6]; MDCK-MDR1, pH 9): 0.41 ± 0.06 ×10⁻⁶ cm/s | Papp B→A ([6]; MDCK-MDR1, pH 9): 5.89 ± 1.14 ×10⁻⁶ cm/s | recovery ([7]; MDCK-MDR1, pH 5): 100 to 120% | recovery ([7]; MDCK-MDR1, pH 6): 78 to 109% | recovery ([7]; MDCK-MDR1, pH 7): 98 to 110% | recovery ([7]; MDCK-MDR1, pH 8): 96 to 102% | recovery ([7]; MDCK-MDR1, pH 9): 92 to 100% | Papp, B⟶A ([8]; MDCK-MDR1, pH 7.4): 11.9 ×10⁻⁶ cm/s | Papp, inhibitor ([8]; MDCK-MDR1, pH 7.4): 1.64 ×10⁻⁶ cm/s

COc1cc([C@@H]2c3cc4c(cc3[C@@H](O[C@@H]3O[C@@H]5CO[C@@H](C)O[C@H]5[C@H](O)[C@H]3O)[C@H]3COC(=O)[C@H]23)OCO4)cc(OC)c1O [Etoposide]
logPapp, A⟶B ([9]; pH 6, iso-pH method): -6.93 P in cm/s | logPapp, B⟶A ([9]; pH 6, iso-pH method): -5.50 P in cm/s | logPapp, A⟶B ([9]; pH 7.4, iso-pH method): -6.97 P in cm/s | logPapp, B⟶A ([9]; pH 7.4, iso-pH method): -5.39 P in cm/s | logPapp, A⟶B ([9]; pH 8, iso-pH method): -6.86 P in cm/s | logPapp, B⟶A ([9]; pH 8, iso-pH method): -5.55 P in cm/s | logPapp, A⟶B ([9]; pH 9, iso-pH method): -6.71 P in cm/s | logPapp, B⟶A ([9]; pH 9, iso-pH method): -6.37 P in cm/s | LogP0 [2]: -6.3 P in cm/s | fn ([4]; neutral fraction at pH 7.4): 84% | pKa [10]: 8.53 | Papp ([6]; MDCK-MDR1, pH 6): 0.12 ± 0.02 ×10⁻⁶ cm/s | Papp B→A ([6]; MDCK-MDR1, pH 6): 3.16 ± 0.19 ×10⁻⁶ cm/s | efflux ratio ([6]; MDCK-MDR1, pH 6): 26.8 | Papp ([6]; MDCK-MDR1, pH 7.4): 0.11 ± 0.02 ×10⁻⁶ cm/s | Papp B→A ([6]; MDCK-MDR1, pH 7.4): 4.05 ± 1.18 ×10⁻⁶ cm/s | efflux ratio ([6]; MDCK-MDR1, pH 7.4): 37.6 | Papp ([6]; MDCK-MDR1, pH 8): 0.14 ± 0.04 ×10⁻⁶ cm/s | Papp B→A ([6]; MDCK-MDR1, pH 8): 2.8 ± 0.08 ×10⁻⁶ cm/s | efflux ratio ([6]; MDCK-MDR1, pH 8): 20.2 | Papp ([6]; MDCK-MDR1, pH 9): 0.19 ± 0.08 ×10⁻⁶ cm/s | Papp B→A ([6]; MDCK-MDR1, pH 9): 0.43 ± 0.03 ×10⁻⁶ cm/s | efflux ratio ([6]; MDCK-MDR1, pH 9): 2.2 | recovery ([7]; MDCK-MDR1, pH 6): 92 to 97% | recovery ([7]; MDCK-MDR1, pH 7.4): 98 to 108% | recovery ([7]; MDCK-MDR1, pH 8): 83 to 98% | recovery ([7]; MDCK-MDR1, pH 9): 60 to 71% | Papp, inhibitor ([8]; with inhibitor, pH 7.4 iso-method, ref Troutman and Thakker (2003)): 0.66 ×10⁻⁶ cm/s | Papp, inhibitor ([8]; with inhibitor, pH 7.4 iso-method, ref Wang et al. (2005)): 0.3 ×10⁻⁶ cm/s | Papp, B⟶A ([8]; without inhibitor, pH 7.4 iso-method, ref Troutman and Thakker (2003)): 10.4 ×10⁻⁶ cm/s | Papp, B⟶A ([8]; without inhibitor, pH 7.4 iso-method, ref Wang et al. (2005)): 1.8 ×10⁻⁶ cm/s
